Reference: PMC8381602, “Non-palm Plant Volatile α-Pinene Is Detected by Antenna-Biased Expressed Odorant Receptor 6 in the Rhynchophorus ferrugineus (Olivier) (Coleoptera: Curculionidae)” (Frontiers in Physiology, 2021)

System: T1, RferOr6/RferOrco
T1 construct: full-length ORF of RferOr6 (382 residues, 7 predicted TMDs) cloned from antennal cDNA in pT7TS; cRNA co-injected 1:1 with RferOrco in Xenopus oocytes; with Odorant receptor coreceptor
Assay: two-electrode voltage clamp, Xenopus oocytes, dose-response
Format: cell-based, Rhynchophorus ferrugineus
Conditions: agonist; co-expressed with RferOrco 1:1; holding potential -80 mV; Ringer's buffer pH 7.6; 20 s exposure

EC50: 94.5 µM
SMILES: CC1=CCC2CC1C2(C)C (stereo not drawn) [α-pinene]
